# Columns and labels:
# [1] = test system: RNA amplicon (NASBA), 16S RNA of Mycobacterium tuberculosis; assay: Labelling of RNA amplicon without interim purification, detection by hybridisation on DNA chip; details: label 2 mM, 3 mM HCl, no purification
# Method: In a 1 mL tube, the following are mixed: • 5 μL of 8 mM label solution (96/4 DMSO/Methanol).
# The nucleic acids thus labelled are not purified, but are hybridised directly.
# The labelled nucleic acids are transferred without purification into 480 μL of hybridisation buffer. The samples are hybridised on the DNA chips in the same way as for the previous example.
# [2] = Stability in the dry form at +4° C. after lyophilisation (HPLC purity over time); details: 250 mM in 10 mM Tris HCl pH 7.5 and 10% trehalose, lyophilised one night
# [3] = test system: RNA amplicon (NASBA), 16S RNA of Mycobacterium tuberculosis; details: label 2.5 mM, hybridisation at 45° C. up to 24 hrs
# Method: The solution is mixed by vortex then incubated for 10 minutes at 65° C.
# The labelled nucleic acids were purified on a QiaQuick (PCR purification kit, Qiagen) column using the purification protocol recommended by the manufacturer. The elution volume is 100 μL.
# After purification, the labelled nucleic acids are transferred into 400 of hybridisation buffer. The samples are hybridised on the DNA chips designed for the analysis of the “GenBank” M20940 sequence of the 16S RNA of Mycobacterium tuberculosis. […] The hybridisation stages were performed by injecting. 80 μL of the hybridisation mixture into the chip then maintaining this in a hybridisation oven at 45° C. for 0.5 hour, 2 hours, 6.5 hours or 24 hours.
# 300 μL of pure water; 300 μL of 100 mM Tris buffer pH 7/1 M NaCl/0.05% Tween 20/0.005% antifoamant; 6 μL of BSA (50 mg/mL); 6 μL of SA-PE (300 μg/mL).
# The reading of the fluorescence emitted at the surface of the DNA chip after labelling and hybridisation and the generation of data in terms of signal intensity and percentage homology are performed with the reading systems and software supplied by Affymetrix. The reading system supplies signal and background noise intensities expressed in rfu (“relative fluorescence unit”). The percentage homology is given relative to a reference sequence which in this case is the sequence of Mycobacterium tuberculosis.
# [4] = Stability in a liquid medium at ambient temperature (HPLC purity over time); type: physicochemical; details: 125 mM in 96/4 DMSO/methanol, ambient temperature (22° C.), at 10 days
Substance,background noise compared to BBP [1],percentage homology [1],specific signals (specific hybridisation) compared to BBP [1],stability to lyophilisation [2],stability of labelled amplicons in the course of hybridisation [3],purity of the initial compound [4]
Pyridine Diazo Biotin [PyDB],reduced background noise,higher,improved,perfectly stable,perfectly stable,–
"[Bio-EG3]2-PDAM [BBP, reference compound]",–,relatively low,–,–,–,< 10%

# From patent publication US9266902B2, “Labelling reagents having a pyridine nucleus bearing a diazomethyl function, process for synthesis of such reagents and processes for detection of biological molecules” (priority 2008, dated 2016)
